Values quoted from earlier work, collected in patent publication US20240066097A1 (priority 2022, published 2024).
≈ marks a conversion by molar mass, not a printed value.

Experiments:
SARS coronaviruses [1] = system: SARS coronaviruses
SARS coronaviruses [2] = system: SARS coronaviruses; remark: listed apart in the source
[3] = in vivo

Row | Molecule | IC50 (SARS coronaviruses [2]) [µg/mL] | other results
1 | O=c1c(O)c(-c2ccc(O)cc2)oc2cc(O)cc(O)c12 [Kaempferol] | 62.50 to 125.00 | EC50 level of the flavonol (SARS coronaviruses [1]): 10 µg/mL
2 | O=c1c(O)c(-c2cc(O)c(O)c(O)c2)oc2cc(O)cc(O)c12 [Myricetin] | 0.86 (≈ 2.7 µM) | 
3 | O=C(O[C@@H]1Cc2c(O)cc(O)cc2O[C@@H]1c1cc(O)c(O)c(O)c1)c1cc(O)c(O)c(O)c1 [EGCG, epigallocatechin gallate] | 0.389 to 7.56 | 
4 | COc1ccc([C@@H]2CC(=O)c3c(O)cc(O)cc3O2)cc1O [Hesperetin] | 2.5 (≈ 8.27 µM) | 
5 | O=c1cc(-c2ccc(O)c(O)c2)oc2cc(O)cc(O)c12 [Luteolin] | 5.72 (≈ 20 µM) | 
6 | MBL |  | half life [3]: 72 to 170 h
7 | Oc1cc(O)c2c(c1)O[C@@]1(c3ccc(O)c(O)c3)Oc3cc(O)c4c(c3[C@@H]2[C@H]1O)O[C@H](c1ccc(O)c(O)c1)[C@H](O)[C@H]4c1c(O)cc(O)c2c1O[C@H](c1ccc(O)c(O)c1)[C@H](O)C2 [Cinnamtannin B1] | 28.4 (≈ 32.8 µM) | 
8 | [Ca+2] [calcium] |  | dietary calcium absorption: up to −50%
9 | O=c1c(O)c(-c2ccc(O)c(O)c2)oc2cc(O)cc(O)c12 [Quercetin] | 7.19 to 60 | EC50 level of the flavonol (SARS coronaviruses [1]): 60 µg/mL
10 | Urtica dioica Agglutinin (UDA) (protein, UniProt P11218 24-372, looked up) Lectin/endochitinase 1: QRCGSQGGGGTCPALWCCSIWGWCGDSEPYCGRTCENKCWSGERSDHRCGAAVGNPPCGQDRCCSVHGWCGGGNDYCSGSKCQYRCSSSVRGPRVALSGNSTANSIGNVVVTEPLFDQMFSHRKDCPSQGFYSYHSFLVAAESFPAFGTIGDVATRKREVAAFLAHISQATSGERSDVENPHAWGLCHINTTTVTENDFCTSSDWPCAAGKKYSPRGPIQLTHNFNYGLAGQAIGEDLIQNPDLVEKDPIISFKTALWFWMSQHDNKPSCHDIVLNANSAANRIPNKGVIGNIISRAFGHDDFAVRSSSIGFYKRYCDMLGVSYGHDLKYWFDNTPSSEFQRIQMRVAA |  | EC50 (SARS-CoV-1): 1.3 µg/mL
